Test results taken from patent publication US20260285903A1, “SYNTHESIZED BIOLOGICALLY ACTIVE COMPOUNDS AND METHODS OF MAKING AND USING” (Georgia State University Research Foundation, Inc., priority 2023, published 2026).

Key:
[1] = Incubation with mouse intestinal microsomes (HPLC); assay type: in vitro ADME; conditions: incubation for 30 minutes
Excerpt: The biopharmaceutical properties of the synthesized M13 (5-glutathione-6-shogaol) were characterized.

[2] = tested on: NF-κB signaling pathway; assay: NF-κB-dependent luciferase activity in NF-κB/293/GFP-Luc cells treated with TNF-α; assay type: cell-based; conditions: for RLU (% with TNFα): MLY compounds; for RLU (% with TNFα) / reduction of NF-κB activation: TNF-α 10 ng/ml, 18 hours; for Activity compared with M13: Table 2B; for reduction of NF-κB activation / RLU (% with TNF-α), range: 20 µM; for IC50: TNF-α stimulated, FIG. 9, read-out: dose to reduce the NF-κB activation by 50%; for RLU (% with TNF-α), range: Table 2B bins, 1080 min
Procedure: First, the anti-inflammatory activity of MLY compounds on the NF-κB signaling pathway was examined using the NF-xB/293/GFP-LucTnl cell line (System Biosciences). This cell line is specifically designed for use in quantitatively monitoring (by luciferase intensity) transcriptional activation related to the NF-κB signal transduction pathway in vitro. Treatment of NF-κB/293/GFP-Luc™ cells with 10 ng/ml TNF-α for 18 hours induced strong activation of the NF-κB signal transduction pathway (FIGS. 8A and 8B). […] MLY2 and MLY8 induced a strongest 90% reduction of NF-κB activation the anti-inflammatory effect of MLY 2 and 8 was dose-related (FIG. 9). The dose to reduce the NF-κB activation by 50% was […] for M13, 5 μM for MLY2 and 11 μM for MLY8 (FIG. 9).

## CCCCC/C=C/C(=O)CCc1ccc(O)c(OC)c1 [6-shogaol, reference compound]
[1]
  relative content retained of the input: 61%

## CCCCCC(CC(=O)CCc1ccc(O)c(OC)c1)SC[C@H](NC(=O)[C@@H](N)CCC(=O)O)C(=O)N[C@@H](C)C(=O)O (stereo partly drawn) [MLY-1, Glu(alpha)-Cys(6-shogaol)-Ala]
[2]
  RLU (% with TNFα): 30.3 ± 11.78%
  Activity compared with M13: >>M13 (15~35%)

## CCCCCC(CC(=O)CCc1ccc(O)c(OC)c1)SC[C@H](NC(=O)[C@@H](N)CCC(=O)O)C(=O)N[C@@H](CC(C)C)C(=O)O (stereo partly drawn) [MLY-2, Glu(alpha)-Cys(6-shogaol)-Leu]
[2]
  RLU (% with TNFα): 0.78 ± 0.54%
  reduction of NF-κB activation: 90%
  IC50: 5 µM
  Activity compared with M13: >>>>M13 (0~5%)

## CCCCCC(CC(=O)CCc1ccc(O)c(OC)c1)SC[C@H](NC(=O)[C@@H](N)CCC(=O)O)C(=O)N1CCC[C@H]1C(=O)O (stereo partly drawn) [MLY-3, Glu(alpha)-Cys(6-shogaol)-Pro]
[2]
  RLU (% with TNFα): 6.54 ± 8.56%
  Activity compared with M13: >M13 (35%~70%)

## CCCCCC(CC(=O)CCc1ccc(O)c(OC)c1)SC[C@H](NC(=O)[C@@H](N)CCC(=O)O)C(=O)N[C@@H](Cc1c[nH]c2ccccc12)C(=O)O (stereo partly drawn) [MLY-4, Glu(alpha)-Cys(6-shogaol)-Trp]
[2]
  RLU (% with TNFα): 80.65 ± 2.22%
  Activity compared with M13: = M13 (70%~85%)

## CCCCCC(CC(=O)CCc1ccc(O)c(OC)c1)SC[C@H](NC(=O)[C@@H](N)CCC(=O)O)C(=O)N[C@@H](Cc1ccc(O)cc1)C(=O)O (stereo partly drawn) [MLY-5, Glu(alpha)-Cys(6-shogaol)-Tyr]
[2]
  RLU (% with TNFα): 67.18 ± 3.27%
  Activity compared with M13: >M13 (35%~70%)

## CCCCCC(CC(=O)CCc1ccc(O)c(OC)c1)SC[C@H](NC(=O)[C@@H](N)CC(=O)O)C(=O)N[C@@H](Cc1ccccc1)C(=O)O (stereo partly drawn) [MLY-6, Asp(alpha)-Cys(6-shogaol)-Phe]
[2]
  RLU (% with TNFα): 50.7 ± 1.38%
  Activity compared with M13: >M13 (35%~70%)

## CCCCCC(CC(=O)CCc1ccc(O)c(OC)c1)SC[C@H](NC(=O)[C@@H](N)CC(=O)O)C(=O)N[C@@H](CC(C)C)C(=O)O (stereo partly drawn) [MLY-7, Asp(alpha)-Cys(6-shogaol)-Leu]
[2]
  RLU (% with TNFα): 38.6 ± 3.96%
  Activity compared with M13: >M13 (35%~70%)

## CCCCCC(CC(=O)CCc1ccc(O)c(OC)c1)SC[C@H](NC(=O)[C@@H](N)CC(=O)O)C(=O)N[C@@H](CCSC)C(=O)O (stereo partly drawn) [MLY-8, Asp(alpha)-Cys(6-shogaol)-Met]
[2]
  RLU (% with TNFα): 8.04 ± 4.06%
  reduction of NF-κB activation: 90%
  IC50: 11 µM
  Activity compared with M13: >>>M13 (5%~15%)

## CCCCCC(CC(=O)CCc1ccc(O)c(OC)c1)SC[C@H](NC(=O)[C@@H](N)CC(=O)O)C(=O)N1CCC[C@H]1C(=O)O (stereo partly drawn) [MLY-9, Asp(alpha)-Cys(6-shogaol)-Pro]
[2]
  RLU (% with TNFα): 92.85 ± 2.15%
  Activity compared with M13: <M13 (>90%)
  RLU (% with TNF-α), range: >90%

## CCCCCC(CC(=O)CCc1ccc(O)c(OC)c1)SC[C@H](NC(=O)[C@@H](N)CC(=O)O)C(=O)N[C@H](C(=O)O)C(C)C (stereo partly drawn) [MLY-10, Asp(alpha)-Cys(6-shogaol)-Val]
[2]
  RLU (% with TNFα): 66.68 ± 11.06%
  Activity compared with M13: >M13 (35%~70%)

## CCCCCC(CC(=O)CCc1ccc(O)c(OC)c1)SC[C@H](NC(=O)[C@@H](N)CC(=O)O)C(=O)N[C@@H](Cc1c[nH]c2ccccc12)C(=O)O (stereo partly drawn) [MLY-11, Asp(alpha)-Cys(6-shogaol)-Trp]
[2]
  RLU (% with TNFα): 24.75 ± 0.79%
  Activity compared with M13: >>M13 (15~35%)

## CCCCCC(CC(=O)CCc1ccc(O)c(OC)c1)SC[C@H](NC(=O)[C@@H](N)CC(=O)O)C(=O)N[C@@H](Cc1ccc(O)cc1)C(=O)O (stereo partly drawn) [MLY-12, Asp(alpha)-Cys(6-shogaol)-Tyr]
[2]
  RLU (% with TNFα): 47.43 ± 5.5%
  Activity compared with M13: >M13 (35%~70%)

## CCCCCC(CC(=O)CCc1ccc(O)c(OC)c1)SC[C@H](NC(=O)[C@@H](N)CCC(=O)O)C(=O)N[C@@H](CCSC)C(=O)O (stereo partly drawn) [MLY-13, Glu(alpha)-Cys(6-shogaol)-Met]
[2]
  RLU (% with TNFα): 60.22 ± 13.55%
  Activity compared with M13: >M13 (35%~70%)

## CCCCCC(CC(=O)CCc1ccc(O)c(OC)c1)SC[C@H](NC(=O)[C@@H](N)CC(=O)O)C(=O)N[C@H](C(=O)O)[C@@H](C)CC (stereo partly drawn) [MLY-14, Asp(alpha)-Cys(6-shogaol)-Ile]
[2]
  RLU (% with TNFα): 80.67 ± 11.28%
  Activity compared with M13: = M13 (70%~85%)

## CCCCCC(CC(=O)CCc1ccc(O)c(OC)c1)SC[C@H](NC(=O)[C@@H](N)CCC(=O)O)C(=O)N[C@@H](Cc1ccccc1)C(=O)O (stereo partly drawn) [MLY-15, Glu(alpha)-Cys(6-shogaol)-Phe]
[2]
  RLU (% with TNFα): 47.98 ± 9.35%
  Activity compared with M13: >M13 (35%~70%)

## CCCCCC(CC(=O)CCc1ccc(O)c(OC)c1)SC[C@H](NC(=O)[C@@H](N)CCC(=O)O)C(=O)N[C@H](C(=O)O)[C@@H](C)CC (stereo partly drawn) [MLY-16, Glu(alpha)-Cys(6-shogaol)-Ile]
[2]
  RLU (% with TNFα): 68.19 ± 4.46%
  Activity compared with M13: >M13 (35%~70%)

## CCCCCC(CC(=O)CCc1ccc(O)c(OC)c1)SC[C@H](NC(=O)[C@@H](N)CCC(=O)O)C(=O)N[C@H](C(=O)O)C(C)C (stereo partly drawn) [MLY-17, Glu(alpha)-Cys(6-shogaol)-Val]
[2]
  RLU (% with TNFα): 45.13 ±1.96%
  Activity compared with M13: >M13 (35%~70%)

## CCCCCC(CC(=O)CCc1ccc(O)c(OC)c1)SC[C@H](NC(=O)[C@@H](N)CC(=O)O)C(=O)NCC(=O)O (stereo partly drawn) [MLY-18, Asp(alpha)-Cys(6-shogaol)-Gly]
[2]
  RLU (% with TNFα): 112.31 ± 7.28%
  Activity compared with M13: <M13 (>90%)
  RLU (% with TNF-α), range: >90%

## CCCCCC(CC(=O)CCc1ccc(O)c(OC)c1)SC[C@H](NC(=O)[C@@H](N)CC(=O)O)C(=O)N[C@@H](C)C(=O)O (stereo partly drawn) [MLY-19, Asp(alpha)-Cys(6-shogaol)-Ala]
[2]
  RLU (% with TNFα): 67.04 ± 11.04%
  Activity compared with M13: >M13 (35%~70%)
